Values after ≈ are worked out from the molar mass of the structure shown. Read-outs that look alike come from different tables or passages of the source.
Key:
3T3 fibroblast cells = test: In vitro phototoxicity assay (neutral red; UV light-treated vs dark control plates); format: cell-based; conditions: for Photo Toxicity UV Tox50: UV light 50 minutes; for Photo Toxicity Dark Tox50: dark control plate
Method in brief: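 Neutral red viability readout (A535 after EtOH/acetic acid extraction) compares paired plates: one exposed 50 min to UV at 1.6–1.8 mW/cm^2, one held in darkness, both dosed with compound in HBSS and recovered overnight. 3T3 fibroblast cells used; phototoxicity taken as the difference.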

in vitro = format: cell-based; conditions: Chinese hamster, Cytotox. CHO-K1
gram positive bacteria = test: In vitro anti-bacterial activity assay (broth dilution MIC), gram positive bacteria; format: cell-based, S. aureus; conditions: 18 h
Method in brief: (§1)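 Broth dilution MIC following CLSI M7-A2: compounds serially diluted, log-phase test strains added to final ~5×10^5 CFU/ml, incubated ~18 hours at 35° C in ambient air. Plates read on microplate reader or visually; MIC is lowest concentration inhibiting growth.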

[1] = Mammalian cytotoxicity assay (resazurin), COS-1 cells; format: cell-based; conditions: African green monkey, read-out: Cytotox. COS-1
Method in brief: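 Resazurin read-out (0.042 mg/ml, 2 h at 37° C. then 30 min dark, room temperature; fluorescence 535/590 nm) follows 24-hour compound exposure of overnight-seeded cells, serially diluted. IC50 is the concentration giving 50% growth inhibition.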

gram negative bacteria = test: In vitro anti-bacterial activity assay (broth dilution MIC), gram negative bacteria; format: cell-based, E. coli
Method in brief: as §1

[2] = Staphylococcus aureus, S. aureus MRSA5, read-out: Median MIC's G+ S. aureus MRSA5
[3] = Staphylococcus aureus, S. aureus RN450, read-out: Median MIC's G+ S. aureus RN450
[4] = Streptococcus pneumoniae, S. pneumoniae 157E-Strep, read-out: Median MIC's G+ S. pneumoniae 157E-Strep
[5] = Escherichia coli, 18 h, E. coli D1 209, read-out: Median MIC's G− E. coli D1 209
[6] = Escherichia coli, 18 h, E. coli MG 1655, read-out: Median MIC's G− E. coli MG 1655
[7] = Escherichia coli, ATCC25922, 18 h, E. coli ATCC 25922, read-out: Median MIC's G− E. coli ATCC 25922
[8] = Pseudomonas aeruginosa, 18 h, P. aeruginosa K201 PAO6609, read-out: Median MIC's G− P. aeruginosa K201 PAO6609

| SMILES | Photo Toxicity UV Tox50 (3T3 fibroblast cells) | Photo Toxicity Dark Tox50 (3T3 fibroblast cells) | IC50 at 24 h (in vitro) | MIC (gram positive bacteria; [2]) | MIC (gram positive bacteria; [3]) | MIC (gram positive bacteria; [4]) | IC50 at 24 h [1] | MIC (gram negative bacteria; [5]) | MIC (gram negative bacteria; [6]) | MIC (gram negative bacteria; [7]) | MIC (gram negative bacteria; [8]) |
| --- | --- | --- | --- | --- | --- | --- | --- | --- | --- | --- | --- |
| CN(C)[C@@H]1C(O)=C(C(N)=O)C(=O)[C@@]2(O)C(O)=C3C(=O)c4c(O)ccc(-c5cccc(C(=O)NCCN6CCCC6)c5)c4C[C@H]3C[C@@H]12 [CR] | >127.91 µM | >127.91 µM | > 39.6 µM | 16 µg/mL (≈ 25.4 µM) | 1 µg/mL (≈ 1.59 µM) | 0.25 µg/mL (≈ 0.396 µM) | > 39.6 µM | 64 µg/mL (≈ 101 µM) | 16 µg/mL (≈ 25.4 µM) | 64 µg/mL (≈ 101 µM) | 64 µg/mL (≈ 101 µM) |
| CN(C)CCNCc1cccc(-c2ccc(O)c3c2C[C@H]2C[C@H]4[C@H](N(C)C)C(O)=C(C(N)=O)C(=O)[C@@]4(O)C(O)=C2C3=O)c1 [CS] | >139.98 µM | >139.98 µM | > 140 µM | 8 µg/mL (≈ 13.5 µM) | 0.06 µg/mL (≈ 0.102 µM) | 0.06 µg/mL (≈ 0.102 µM) | > 140 µM | 64 µg/mL (≈ 108 µM) | 2 µg/mL (≈ 3.39 µM) | 4 µg/mL (≈ 6.77 µM) | 64 µg/mL (≈ 108 µM) |
| CN(C)CCN(C)Cc1cccc(-c2ccc(O)c3c2C[C@H]2C[C@H]4[C@H](N(C)C)C(O)=C(C(N)=O)C(=O)[C@@]4(O)C(O)=C2C3=O)c1 [CT] | >126.03 µM | >126.03 µM | > 126 µM | 4 µg/mL (≈ 6.61 µM) | 0.0625 µg/mL (≈ 0.103 µM) | 0.06 µg/mL (≈ 0.0992 µM) | > 126 µM | 4 µg/mL (≈ 6.61 µM) | 2 µg/mL (≈ 3.31 µM) | 2 µg/mL (≈ 3.31 µM) | 64 µg/mL (≈ 106 µM) |
| CN(C)CCCN(C)Cc1cccc(-c2ccc(O)c3c2C[C@H]2C[C@H]4[C@H](N(C)C)C(O)=C(C(N)=O)C(=O)[C@@]4(O)C(O)=C2C3=O)c1 [CU] | >123.6 µM | >123.6 µM | > 124 µM | 16 µg/mL (≈ 25.9 µM) | 0.5 µg/mL (≈ 0.808 µM) | 0.125 µg/mL (≈ 0.202 µM) | > 124 µM | 32 µg/mL (≈ 51.7 µM) | 8 µg/mL (≈ 12.9 µM) | 8 µg/mL (≈ 12.9 µM) | 32 µg/mL (≈ 51.7 µM) |
| CN(C)CCCCNCc1cccc(-c2ccc(O)c3c2C[C@H]2C[C@H]4[C@H](N(C)C)C(O)=C(C(N)=O)C(=O)[C@@]4(O)C(O)=C2C3=O)c1 [CV] | >134.59 µM | >134.59 µM | > 135 µM | 32 µg/mL (≈ 51.7 µM) | 2 µg/mL (≈ 3.23 µM) | 4 µg/mL (≈ 6.46 µM) | > 135 µM | 64 µg/mL (≈ 103 µM) | 64 µg/mL (≈ 103 µM) | 64 µg/mL (≈ 103 µM) | 64 µg/mL (≈ 103 µM) |
| CN(C)CCCCN(C)Cc1cccc(-c2ccc(O)c3c2C[C@H]2C[C@H]4[C@H](N(C)C)C(O)=C(C(N)=O)C(=O)[C@@]4(O)C(O)=C2C3=O)c1 [CW] | >132.05 µM | >132.05 µM | > 132 µM | 8 µg/mL (≈ 12.6 µM) | 0.06 µg/mL (≈ 0.0948 µM) | 0.06 µg/mL (≈ 0.0948 µM) | > 132 µM | 4 µg/mL (≈ 6.32 µM) | 2 µg/mL (≈ 3.16 µM) | 2 µg/mL (≈ 3.16 µM) | 64 µg/mL (≈ 101 µM) |
| CN(C)CCCNCc1cccc(-c2ccc(O)c3c2C[C@H]2C[C@H]4[C@H](N(C)C)C(O)=C(C(N)=O)C(=O)[C@@]4(O)C(O)=C2C3=O)c1 [CX] | >137.23 µM | >137.23 µM | > 137 µM | 8 µg/mL (≈ 13.2 µM) | 0.5 µg/mL (≈ 0.827 µM) | 0.25 µg/mL (≈ 0.413 µM) | > 137 µM | 32 µg/mL (≈ 52.9 µM) | 16 µg/mL (≈ 26.5 µM) | 16 µg/mL (≈ 26.5 µM) | 64 µg/mL (≈ 106 µM) |
| CN(C)CCNCc1ccc(-c2ccc(O)c3c2C[C@H]2C[C@H]4[C@H](N(C)C)C(O)=C(C(N)=O)C(=O)[C@@]4(O)C(O)=C2C3=O)o1 [CY] | >142.02 µM | >142.02 µM | > 142 µM | 64 µg/mL (≈ 110 µM) | 0.25 µg/mL (≈ 0.431 µM) | 0.06 µg/mL (≈ 0.103 µM) | > 142 µM | 64 µg/mL (≈ 110 µM) | 2 µg/mL (≈ 3.44 µM) | 4 µg/mL (≈ 6.89 µM) | 64 µg/mL (≈ 110 µM) |
| CN(C)CCN(C)Cc1ccc(-c2ccc(O)c3c2C[C@H]2C[C@H]4[C@H](N(C)C)C(O)=C(C(N)=O)C(=O)[C@@]4(O)C(O)=C2C3=O)o1 [CZ] | >137.77 µM | >137.77 µM | > 13.8 µM | 16 µg/mL (≈ 26.9 µM) | 0.06 µg/mL (≈ 0.101 µM) | 0.06 µg/mL (≈ 0.101 µM) | > 13.8 µM | 16 µg/mL (≈ 26.9 µM) | 4 µg/mL (≈ 6.73 µM) | 4 µg/mL (≈ 6.73 µM) | 64 µg/mL (≈ 108 µM) |
| CN1CCN(C(=O)c2cccc(-c3ccc(O)c4c3C[C@H]3C[C@H]5[C@H](N(C)C)C(O)=C(C(N)=O)C(=O)[C@@]5(O)C(O)=C3C4=O)c2)CC1 [C] | >137.76 µM | >137.76 µM | > 138 µM | 64 µg/mL (≈ 104 µM) | 0.25 µg/mL (≈ 0.405 µM) | 0.06 µg/mL (≈ 0.0973 µM) | > 138 µM | 64 µg/mL (≈ 104 µM) | 32 µg/mL (≈ 51.9 µM) | 8 µg/mL (≈ 13 µM) | 64 µg/mL (≈ 104 µM) |
| CN(C)[C@@H]1C(O)=C(C(N)=O)C(=O)[C@@]2(O)C(O)=C3C(=O)c4c(O)ccc(-c5cccc(C(=O)NCC[N+](C)(C)C)c5)c4C[C@H]3C[C@@H]12 [DA] | >123.61 µM | >123.61 µM | > 1.23 µM | 64 µg/mL | 4 µg/mL | 32 µg/mL | > 1.23 µM | 64 µg/mL | 64 µg/mL | 64 µg/mL | 64 µg/mL |
| CN(C)[C@@H]1C(O)=C(C(N)=O)C(=O)[C@@]2(O)C(O)=C3C(=O)c4c(O)ccc(-c5cccc(C(=O)NCCN6CCOCC6)c5)c4CC3CC12 (stereo partly drawn) [DC] | >136.18 µM | >136.18 µM | > 13.6 µM | 4 µg/mL (≈ 6.19 µM) | 0.125 µg/mL (≈ 0.193 µM) | 0.125 µg/mL (≈ 0.193 µM) | > 13.6 µM | 64 µg/mL (≈ 99 µM) | 8 µg/mL (≈ 12.4 µM) | 16 µg/mL (≈ 24.7 µM) | 64 µg/mL (≈ 99 µM) |
| COCCCNC(=O)c1cccc(-c2ccc(O)c3c2CC2CC4[C@H](N(C)C)C(O)=C(C(N)=O)C(=O)[C@@]4(O)C(O)=C2C3=O)c1 (stereo partly drawn) [DD] | >152.62 µM | >152.62 µM | > 15.3 µM | 2 µg/mL (≈ 3.3 µM) | 0.0625 µg/mL (≈ 0.103 µM) | 0.06 µg/mL (≈ 0.0991 µM) | > 15.3 µM | 64 µg/mL (≈ 106 µM) | 64 µg/mL (≈ 106 µM) | 64 µg/mL (≈ 106 µM) | 64 µg/mL (≈ 106 µM) |
| COCCCOCCN(C)Cc1cccc(-c2ccc(O)c3c2C[C@H]2C[C@H]4[C@H](N(C)C)C(O)=C(C(N)=O)C(=O)[C@@]4(O)C(O)=C2C3=O)c1 [DE] | >200 µM | >200 µM | > 20 µM | 2 µg/mL (≈ 3.08 µM) | 0.06 µg/mL (≈ 0.0923 µM) | 0.06 µg/mL (≈ 0.0923 µM) | > 20 µM | 2 µg/mL (≈ 3.08 µM) | 8 µg/mL (≈ 12.3 µM) | 2 µg/mL (≈ 3.08 µM) | 64 µg/mL (≈ 98.5 µM) |
| COCCNC(=O)c1ccc(-c2ccc(O)c3c2C[C@H]2C[C@H]4[C@H](N(C)C)C(O)=C(C(N)=O)C(=O)[C@@]4(O)C(O)=C2C3=O)o1 [DF] | >200 µM | >200 µM | > 20 µM | 16 µg/mL (≈ 27.5 µM) | 0.0625 µg/mL (≈ 0.107 µM) | 0.06 µg/mL (≈ 0.103 µM) | > 20 µM | 64 µg/mL (≈ 110 µM) | 32 µg/mL (≈ 55 µM) | 16 µg/mL (≈ 27.5 µM) | 64 µg/mL (≈ 110 µM) |
| CN(C)[C@@H]1C(O)=C(C(N)=O)C(=O)[C@@]2(O)C(O)=C3C(=O)c4c(O)ccc(-c5cccc(CCCN)c5)c4C[C@H]3C[C@@H]12 [DG] | 64.8 µM | >200 µM | > 20 µM | 64 µg/mL (≈ 117 µM) | 0.5 µg/mL (≈ 0.913 µM) | 0.125 µg/mL (≈ 0.228 µM) | > 20 µM | 32 µg/mL (≈ 58.4 µM) | 32 µg/mL (≈ 58.4 µM) | 32 µg/mL (≈ 58.4 µM) | 64 µg/mL (≈ 117 µM) |
| CN(C)CCCNC(=O)c1ccc(-c2ccc(O)c3c2C[C@H]2C[C@H]4[C@H](N(C)C)C(O)=C(C(N)=O)C(=O)[C@@]4(O)C(O)=C2C3=O)o1 [DH] | >200 µM | >200 µM | > 200 µM | 64 µg/mL (≈ 105 µM) | 4 µg/mL (≈ 6.57 µM) | 2 µg/mL (≈ 3.29 µM) | > 200 µM | 64 µg/mL (≈ 105 µM) | 64 µg/mL (≈ 105 µM) | 64 µg/mL (≈ 105 µM) | 64 µg/mL (≈ 105 µM) |
| CN(C)[C@@H]1C(O)=C(C(N)=O)C(=O)[C@@]2(O)C(O)=C3C(=O)c4c(O)ccc(-c5cccc(CCCN6CCCCC6)c5)c4C[C@H]3C[C@@H]12 [DI] | 45.65 µM | >200 µM | 54.1 µM | 2 µg/mL (≈ 3.25 µM) | 0.0625 µg/mL (≈ 0.102 µM) | 0.06 µg/mL (≈ 0.0974 µM) | 59.4 µM | 2 µg/mL (≈ 3.25 µM) | 4 µg/mL (≈ 6.5 µM) | 1 µg/mL (≈ 1.62 µM) | 64 µg/mL (≈ 104 µM) |
